Laboratory results: PMC12567398, “New Assay Systems to Characterize the Broad-Spectrum Antiherpesviral and Non-Herpesviral Activity of Cyclin-Dependent Kinase (CDK) 8 Inhibitors” (Pharmaceuticals, 2025)
Where two headings read alike, the source gives them in different places.

Tests used:
SARS-CoV-2 d6-YFP = details: read-out: Antiviral mean EC50 based on YFP measurements; SARS-CoV-2 d6-YFP; Caco-2; […]
Caco-2 cells = experiment: Neutral Red uptake cell viability assay, Caco-2; details: read-out: mean CC50; Caco-2 (Fig 7D)
in vitro [1] = details: human
EHV-1-GFP = EHV-1-GFP antiviral assay, GFP fluorometry; format: cell-based, equine herpesvirus 1
in vitro [2] = details: mouse
in vitro [3] = details: African green monkey
in vitro [4] = details: African green monkey; remark: listed apart in the source
HHV-6A-GFP = experiment: HHV-6A plaque reduction assay in HFFs; details: Human betaherpesvirus 6A, read-out: Antiviral mean EC50 based on plaque assay measurements
MHV-68-Luc = MHV-68-Luc luciferase reporter assay; format: cell-based, murine herpesvirus 68; details: Murine herpesvirus, MHV-68-Luc
[5] = Neutral Red uptake cell viability assay, P3HR-1; details: human
[6] = test system: Epstein–Barr virus P3HR-1; experiment: EBV lytic assay in TPA-induced P3HR-1 cells, qPCR; format: cell-based; details: human gammaherpesvirus 4, P3HR-1, 240 h, read-out: Antiviral mean EC50 based on qPCR measurements

## O=c1nc(NO)ccn1[C@@H]1O[C@H](CO)[C@@H](O)[C@H]1O [EIDD-1931]
SARS-CoV-2 d6-YFP
  EC50: 4.1 ± 1.4 µM
Caco-2 cells
  CC50: > 100 µM

## Nc1nc(O)c2ncn(COC(CO)CO)c2n1 [GCV, ganciclovir]
In vitro [1]; CC50
  CC50: > 50 µM
In vitro [1]; mean CC50
  CC50: > 100 µM
EHV-1-GFP
  EC50: 1.3 ± 0.3 µM
EHV-1-GFP; COS-7
  EC50: 0.2 ± 0.1 µM
EHV-1-GFP; Equus caballus, Vero
  EC50: 0.04 ± 0.05 µM
In vitro [2]
  CC50 at 7 d: > 100 µM
In vitro [3]
  CC50 at 4 d: > 100 µM
In vitro [4]
  CC50 at 7 d: > 100 µM
HHV-6A-GFP
  EC50: 2.5 ± 0.6 µM
MHV-68-Luc; HFF
  EC50: > 50 µM
MHV-68-Luc; MEF
  EC50: 9.4 ± 6.3 µM
MHV-68-Luc; Vero
  EC50: 0.9 ± 0.7 µM

## CC(C)OC(=O)[C@H](C)N[P@](=O)(CO[C@H](C)Cn1cnc2c(N)ncnc21)Oc1ccccc1 [TAF, tenofovir alafenamide]
[5]
  CC50 at 10 d: > 100 µM
[6]
  EC50: 1.8 µM
